Numbers after ± are expanded uncertainties.
Key:
[1] = mn = molality of the nth substance listed, in mol/kg; conditions: 86.5 kPa, Liquid; for speed of sound: Frequency=3 MHz, Sing-around technique in a fixed-path interferometer; for mass density: Vibrating tube method
[2] = refractive index (Na D-line) (dimensionless); mn = molality of the nth substance listed, in mol/kg; conditions: 86.5 kPa, Liquid, Standard Abbe refractometry

c1ccsc1 [thiophene] + CCCCCCCC
Conditions | mass density, [1] [kg/m3] | refractive index, [2] | speed of sound, [1] [m/s]
288.15 K, m1 = 0.0158 | 707.297 ± 7.5 | 1.4002 ± 0.0015 | 1214.4 ± 5.1
288.15 K, m1 = 0.0275 | 707.523 ± 7.5 | 1.4003 ± 0.0015 | 1214.4 ± 5.1
288.15 K, m1 = 0.0517 | 707.987 ± 7.5 | 1.4004 ± 0.0015 | 1214.4 ± 5.1
288.15 K, m1 = 0.0847 | 708.616 ± 7.5 | 1.4005 ± 0.0015 | 1214.3 ± 5.1
288.15 K, m1 = 0.0952 | 708.817 ± 7.5 | 1.4006 ± 0.0015 | 1214.3 ± 5.1
288.15 K, m1 = 0.1081 | 709.062 ± 7.5 | 1.4006 ± 0.0015 | 1214.3 ± 5.1
288.15 K, m1 = 0.1182 | 709.253 ± 7.5 | 1.4007 ± 0.0015 | 1214.3 ± 5.1
288.15 K, m1 = 0.1353 | 709.577 ± 7.4 | 1.4008 ± 0.0014 | 1214.2 ± 5.1
288.15 K, m1 = 0.1494 | 709.844 ± 7.4 | 1.4008 ± 0.0014 | 1214.2 ± 5.1
288.15 K, m1 = 0.1577 | 710 ± 7.4 | 1.4009 ± 0.0014 | 1214.2 ± 5.1
288.15 K, m1 = 0.1729 | 710.288 ± 7.4 | 1.401 ± 0.0014 | 1214.2 ± 5.1
288.15 K, m1 = 0.1797 | 710.414 ± 7.4 | 1.401 ± 0.0014 | 1214.2 ± 5.1
288.15 K, m1 = 0.1932 | 710.67 ± 7.4 | 1.4011 ± 0.0014 | 1214.2 ± 5.1
288.15 K, m1 = 0.2031 | 710.855 ± 7.4 | 1.4012 ± 0.0014 | 1214.1 ± 5.1
288.15 K, m1 = 0.3004 | 712.662 ± 7.4 | 1.4017 ± 0.0014 | 1214 ± 5
288.15 K, m1 = 0.4002 | 714.496 ± 7.4 | 1.4023 ± 0.0014 | 1213.8 ± 5
288.15 K, m1 = 0.5026 | 716.351 ± 7.4 | 1.4028 ± 0.0014 | 1213.6 ± 5
288.15 K, m1 = 0.5823 | 717.77 ± 7.4 | 1.4033 ± 0.0014 | 1213.5 ± 4.9
293.15 K, m1 = 0.0158 | 703.296 ± 7.5 | 1.3976 ± 0.0015 | 1193.3 ± 5.1
293.15 K, m1 = 0.0275 | 703.52 ± 7.4 | 1.3977 ± 0.0015 | 1193.3 ± 5.1
293.15 K, m1 = 0.0517 | 703.981 ± 7.4 | 1.3978 ± 0.0015 | 1193.3 ± 5.1
293.15 K, m1 = 0.0847 | 704.605 ± 7.4 | 1.398 ± 0.0015 | 1193.2 ± 5.1
293.15 K, m1 = 0.0952 | 704.805 ± 7.4 | 1.3981 ± 0.0015 | 1193.2 ± 5.1
293.15 K, m1 = 0.1081 | 705.047 ± 7.4 | 1.3982 ± 0.0015 | 1193.2 ± 5.1
293.15 K, m1 = 0.1182 | 705.236 ± 7.4 | 1.3982 ± 0.0015 | 1193.2 ± 5.1
293.15 K, m1 = 0.1353 | 705.558 ± 7.4 | 1.3983 ± 0.0014 | 1193.2 ± 5.1
293.15 K, m1 = 0.1494 | 705.822 ± 7.4 | 1.3984 ± 0.0014 | 1193.2 ± 5.1
293.15 K, m1 = 0.1577 | 705.976 ± 7.4 | 1.3985 ± 0.0014 | 1193.2 ± 5.1
293.15 K, m1 = 0.1729 | 706.262 ± 7.4 | 1.3985 ± 0.0014 | 1193.2 ± 5.1
293.15 K, m1 = 0.1797 | 706.389 ± 7.4 | 1.3986 ± 0.0014 | 1193.1 ± 5.1
293.15 K, m1 = 0.1932 | 706.641 ± 7.4 | 1.3986 ± 0.0014 | 1193.1 ± 5.1
293.15 K, m1 = 0.2031 | 706.824 ± 7.4 | 1.3987 ± 0.0014 | 1193.1 ± 5.1
293.15 K, m1 = 0.3004 | 708.627 ± 7.4 | 1.3992 ± 0.0014 | 1193 ± 5
293.15 K, m1 = 0.4002 | 710.432 ± 7.4 | 1.3997 ± 0.0014 | 1192.9 ± 5
293.15 K, m1 = 0.5026 | 712.275 ± 7.4 | 1.4003 ± 0.0014 | 1192.7 ± 5
293.15 K, m1 = 0.5823 | 713.683 ± 7.4 | 1.4007 ± 0.0014 | 1192.6 ± 4.9
298.15 K, m1 = 0.0158 | 699.223 ± 7.4 | 1.3952 ± 0.0015 | 1172.4 ± 5.1
298.15 K, m1 = 0.0275 | 699.447 ± 7.4 | 1.3953 ± 0.0015 | 1172.4 ± 5.1
298.15 K, m1 = 0.0517 | 699.907 ± 7.4 | 1.3954 ± 0.0015 | 1172.4 ± 5.1
298.15 K, m1 = 0.0847 | 700.53 ± 7.4 | 1.3956 ± 0.0015 | 1172.3 ± 5.1
298.15 K, m1 = 0.0952 | 700.728 ± 7.4 | 1.3957 ± 0.0015 | 1172.3 ± 5.1
298.15 K, m1 = 0.1081 | 700.97 ± 7.4 | 1.3957 ± 0.0015 | 1172.3 ± 5.1
298.15 K, m1 = 0.1182 | 701.159 ± 7.4 | 1.3958 ± 0.0015 | 1172.3 ± 5.1
298.15 K, m1 = 0.1353 | 701.48 ± 7.4 | 1.3959 ± 0.0015 | 1172.3 ± 5.1
298.15 K, m1 = 0.1494 | 701.743 ± 7.4 | 1.396 ± 0.0014 | 1172.3 ± 5.1
298.15 K, m1 = 0.1577 | 701.901 ± 7.4 | 1.3961 ± 0.0014 | 1172.3 ± 5.1
298.15 K, m1 = 0.1729 | 702.182 ± 7.4 | 1.3961 ± 0.0014 | 1172.3 ± 5.1
298.15 K, m1 = 0.1797 | 702.312 ± 7.4 | 1.3962 ± 0.0014 | 1172.2 ± 5.1
298.15 K, m1 = 0.1932 | 702.561 ± 7.4 | 1.3962 ± 0.0014 | 1172.2 ± 5.1
298.15 K, m1 = 0.2031 | 702.742 ± 7.4 | 1.3963 ± 0.0014 | 1172.2 ± 5.1
298.15 K, m1 = 0.3004 | 704.545 ± 7.4 | 1.3968 ± 0.0014 | 1172.1 ± 5
298.15 K, m1 = 0.4002 | 706.341 ± 7.4 | 1.3973 ± 0.0014 | 1171.9 ± 5
298.15 K, m1 = 0.5026 | 708.178 ± 7.4 | 1.3978 ± 0.0014 | 1171.8 ± 5
298.15 K, m1 = 0.5823 | 709.577 ± 7.4 | 1.3982 ± 0.0014 | 1171.6 ± 4.9
303.15 K, m1 = 0.0158 | 695.177 ± 7.4 | 1.3926 ± 0.0015 | 1151.5 ± 5.1
303.15 K, m1 = 0.0275 | 695.398 ± 7.4 | 1.3927 ± 0.0015 | 1151.5 ± 5.1
303.15 K, m1 = 0.0517 | 695.856 ± 7.4 | 1.3928 ± 0.0015 | 1151.4 ± 5.1
303.15 K, m1 = 0.0847 | 696.474 ± 7.4 | 1.393 ± 0.0015 | 1151.4 ± 5.1
303.15 K, m1 = 0.0952 | 696.672 ± 7.4 | 1.393 ± 0.0015 | 1151.4 ± 5.1
303.15 K, m1 = 0.1081 | 696.912 ± 7.4 | 1.3931 ± 0.0015 | 1151.4 ± 5.1
303.15 K, m1 = 0.1182 | 697.101 ± 7.4 | 1.3932 ± 0.0015 | 1151.4 ± 5.1
303.15 K, m1 = 0.1353 | 697.419 ± 7.4 | 1.3933 ± 0.0015 | 1151.3 ± 5.1
303.15 K, m1 = 0.1494 | 697.682 ± 7.4 | 1.3934 ± 0.0015 | 1151.3 ± 5.1
303.15 K, m1 = 0.1577 | 697.834 ± 7.4 | 1.3934 ± 0.0015 | 1151.3 ± 5.1
303.15 K, m1 = 0.1729 | 698.118 ± 7.4 | 1.3935 ± 0.0014 | 1151.3 ± 5.1
303.15 K, m1 = 0.1797 | 698.244 ± 7.4 | 1.3935 ± 0.0014 | 1151.3 ± 5.1
303.15 K, m1 = 0.1932 | 698.492 ± 7.4 | 1.3936 ± 0.0014 | 1151.3 ± 5.1
303.15 K, m1 = 0.2031 | 698.675 ± 7.4 | 1.3936 ± 0.0014 | 1151.3 ± 5.1
303.15 K, m1 = 0.3004 | 700.46 ± 7.4 | 1.3941 ± 0.0014 | 1151.1 ± 5
303.15 K, m1 = 0.4002 | 702.25 ± 7.4 | 1.3947 ± 0.0014 | 1151 ± 5
303.15 K, m1 = 0.5026 | 704.068 ± 7.4 | 1.3953 ± 0.0014 | 1150.8 ± 5
303.15 K, m1 = 0.5823 | 705.455 ± 7.4 | 1.3957 ± 0.0014 | 1150.7 ± 4.9
